# Counter-ions that a name gives are not always drawn.
# Columns and labels:
# hK14mIL33tg mice [1] = assay: Scratching behavior (skin scratching time) in hK14mIL33tg mice; format: in vivo, mouse
# Description: Skin scratching time (sec/min) in any 20 min of wild-type mice (WT) and hK14mIL33tg mice (Tg) was measured. […] Furthermore, an effect of anti-histamine drugs on the scratching behavior was verified. Diphenhydramine hydrochloride (2 mg) was intraperitoneally administered to hK14mIL33tg mice. As a result, the scratching time of mice observed in 20 min from 6 min after the administration decreased from average 4.6 min to average 0.2 min (FIG. 19).
# hK14mIL33tg mice [2] = assay: Rash score of hK14mIL33tg mice after application to rash site; format: in vivo, mouse
# Description: Each item can be measured by a known method, or according to the below-mentioned Examples. For example, as for the rash score, 5 items of pruritus, erythematous plaque/bleeding, edema, epidermis detachment/erosion, and desquamation/drying are evaluated and rated as absent (0 point), mild (1 point), moderate (2 points), and severe (3 points), and the total points are used for measurement (Matsuda H et al., Int. Immunol, 9(3):461-466, 1997). As for the number of inflammatory cells, for example, cells derived from skin tissue, peripheral blood or lymph node are analyzed by flow cytometry, and the ratio thereof can be measured. The inflammatory cells include eosinophils, neutrophils, basophils, mast cells, type 2 innate lymphoid cells and the like, preferably eosinophils, mast cells and type 2 innate lymphoid cells. The total IgE concentration, histamine concentration, cytokine concentration and chemokine concentration can be measured by ELISA using each antibody. As used herein, cytokine is preferably IL-5 or IL-13. […]
# An effect of steroid drug on scratching behavior of hK14mIL33tg mice was verified. […] As rash scores, 5 items of pruritus, erythematous plaque/bleeding, edema, epidermis detach/erosion, and desquamation/drying were evaluated into absent (0 point), mild (1 point), moderate (2 points), and severe (3 points) (Matsuda H et al., Int. Immunol, 9(3):461-466, 1997). […]
SMILES,"scratching time after administration (hK14mIL33tg mice [1]; 2 mg intraperitoneally, observed in 20 min from 6 min after the administration, average, n=3, before administration average 4.6 min) [min]","scratching time (result in words) (hK14mIL33tg mice [1]; hK14mIL33tg (Tg) mice, increased scratching time vs wild-type)","total points of rash score after application (hK14mIL33tg mice [2]; applied to rash site 5 times every 2 days, average, n=4, before application average 12.3 points, 5 items scored 0-3) [points]",rash score (result in words) (hK14mIL33tg mice [2]; hK14mIL33tg (Tg) mice)
CN(C)CCOC(c1ccccc1)c1ccccc1 [Diphenhydramine hydrochloride],0.2,could reduce,,
CCCC(=O)O[C@]1(C(=O)COC(=O)CC)[C@@H](C)C[C@H]2[C@@H]3CCC4=CC(=O)C=C[C@]4(C)[C@@]3(F)[C@@H](O)C[C@@]21C [betamethasone butyrate propionate],,,4.8,could reduce
